The results in this text go back to patent US8507472B2 (priority 2010, dated 2013).

For one assay, the system named is Alternaria solani. Put plainly: Alternaria test (tomato)/protective. It is filed as in vivo. Particulars: in vivo. An outline of the steps:
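Young tomato plants were sprayed with compound (DMF/emulsifier formulation diluted in water) and inoculated with A. solani spores 1 day later. Plants were kept 24 h at 100% RH and 22 °C, then at 96% RH and 20 °C. Efficacy was scored 7 days post-inoculation, where 0% equals untreated control and 100% means no infection.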

The test system of the next assay is Venturia inaequalis. Put plainly: Venturia test (apple)/protective. It is filed as in vivo. The settings on record: 100 ppm active compound, protective, evaluation 10 days after inoculation. The method in brief: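 Young apple plants sprayed protectively with compound (in acetone/dimethylacetamide with alkylaryl polyglycol ether, diluted in water) at the stated rate, then inoculated with V. inaequalis conidia once dry. Held 1 day at ~20° C, 100% humidity, then greenhouse ~21° C, ~90% humidity; efficacy scored 10 days post-inoculation (0% = control, 100% = no infection).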

Assay [1] concerns Fusarium graminearum. In kind it is in vivo. The settings on record: in vivo.
The subject of another assay is Puccinia triticina. Put plainly: Puccinia triticina test (wheat)/protective. In kind it is in vivo. Particulars: in vivo. The method, then: Solvent: 49 parts by weight of […]
(§1) Emulsifier: 1 part by weight of alkylaryl polyglycol ether
(§2) To produce a suitable preparation of active compound, 1 part by weight of active compound is mixed with the stated amounts of solvent and emulsifier, and the concentrate is diluted with water to the desired concentration.
(§3) To test for protective activity, young plants are sprayed with the active compound preparation at the stated application rate.
After the spray coating has dried on, the plants are sprayed with spores of a spore suspension of Puccinia triticina. The plants remain in an incubation cabin at 20° C. and 100% relative atmospheric humidity for 48 hours.
The plants are placed in greenhouse at a temperature of about 20° C. and a relative atmospheric humidity of about 80%.
Evaluation is carried out 8 days after the inoculation. 0% means an efficacy which corresponds to that of the control, whereas an efficacy of 100% means that no infection is observed.

A further assay concerns Uromyces appendiculatus. Put plainly: Uromyces test (bean)/protective. In kind it is in vivo. Particulars: in vivo. The method, then:
Solvents: 24.5 parts by weight of acetone
• 24.5 parts by weight of dimethylacetamide Emulsifier: 1 part by weight of alkylaryl polyglycol ether
To produce a suitable preparation of active compound, 1 part by weight of active compound is mixed with the stated amounts of solvents and emulsifier, and the concentrate is diluted with water to the desired concentration.
To test for protective activity, young plants are sprayed with the active compound preparation at the stated application rate. After the spray coating has dried on, the plants are inoculated with an aqueous spore suspension of the bean rust pathogen Uromyces appendiculatus and then remain in an incubation cabin at about 20° C. and 100% relative atmospheric humidity for 1 day.
The plants are then placed in a greenhouse at about 21° C. and a relative atmospheric humidity of about 90%.
Evaluation is carried out 10 days after the inoculation. 0% means an efficacy which corresponds to that of the control, whereas an efficacy of 100% means that no infection is observed.

Another assay deals with Botrytis cinerea. Put plainly: Botrytis test (bean)/protective. It is filed as in vivo. The settings on record: 100 ppm active compound, protective, evaluation 2 days after inoculation. An outline of the steps:
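Young bean plants sprayed at the stated rate with compound in acetone/dimethylacetamide plus alkylaryl polyglycol ether emulsifier, diluted in water. Once dry, each leaf got 2 agar pieces colonized by Botrytis cinerea; kept dark at about 20° C., 100% humidity. Infected area scored after 2 days; 0% = control, 100% = no infection.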

For assay [2], the system named is Fusarium nivale (var. majus). Put plainly: Fusarium nivale (var. majus) test (wheat)/protective. The settings on record: 1000 ppm active compound, protective, evaluation 5 days after inoculation. It is filed as in vivo. The method, then:
(§4) Solvent: 49 parts by weight of N,N-dimethylacetamide
as §1, §2, §3
After the spray coating has dried on, the plants are sprayed with spores of a spore suspension of Fusarium nivale (var. majus).
The plants are placed in a greenhouse chamber under a translucent incubation hood at 10° C. and 100% relative atmospheric humidity.
Evaluation is carried out 5 days after the inoculation. 0% means an efficacy which corresponds to that of the control, whereas an efficacy of 100% means that no infection is observed.

A further assay deals with Leptosphaeria nodorum. Put plainly: Leptosphaeria nodorum test (wheat)/protective. In kind it is in vivo. Particulars: in vivo. The method in brief: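 Young wheat plants were sprayed protectively, then inoculated 1 day later with L. nodorum spores and held 48 h at 100% humidity and 22° C. They were then kept in a greenhouse at 90% humidity and 22° C. Efficacy was scored 7-9 days post-inoculation, where 0% equals control and 100% means no infection.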

The next assay deals with Septoria tritici. Put plainly: Septoria tritici test (wheat)/protective. It is filed as in vivo. Particulars: in vivo. The method, then: as §4, §1
To produce a suitable preparation of active compound, 1 part by weight of active compound is mixed with the stated amount of solvent and emulsifier, and the concentrate is diluted with water to the desired concentration.
To test for protective activity, young plants are sprayed with the active compound preparation at the stated application rate. After the spray coating has dried on, the plants are sprayed with a spore suspension of Septoria tritici. The plants remain in an incubation cabin at 20° C. and 100% relative atmospheric humidity for 48 hours. The plants are then placed under a translucent hood at 15° C. and 100% relative atmospheric humidity for a further 60 hours.
The plants are placed in a greenhouse at a temperature of about 15° C. and a relative atmospheric humidity of 80%.
Evaluation is carried out 21 days after the inoculation. 0% means an efficacy which corresponds to that of the control, whereas an efficacy of 100% means that no infection is observed.

The subject of the next assay is Sphaerotheca fuliginea. Put plainly: Sphaerotheca test (cucumber)/protective. It is filed as in vivo. The settings on record: in vivo. An outline of the steps:
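Protective test: young cucumber plants sprayed with compound (DMF/alkylaryl polyglycol ether concentrate diluted in water) at the stated rate, inoculated with S. fuliginea spores 1 day later, then kept in greenhouse at 23 °C, 70% RH. Efficacy scored 7 days post-inoculation; 0% equals untreated control, 100% means no infection.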

A further assay concerns Pyrenophora teres. Put plainly: Pyrenophora teres test (barley)/protective. In kind it is in vivo. Particulars: in vivo. The method in brief: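 Protective test: young barley plants sprayed at the stated rate with compound in DMF/alkylaryl polyglycol ether diluted with water, inoculated with P. teres spores 1 day later, kept 48 h at 100% rel. humidity and 22° C., then greenhouse at 80% and 20° C. Efficacy scored 7-9 days post-inoculation (0% = control, 100% = no infection).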

The subject of a further assay is DON/AcDON production. Put plainly: microbe, parasite or virus in culture. Particulars: 7 days at 28° C. In kind it is cell-based, Fusarium graminearum.
Assay [3] relates to Fusarium graminearum. Put plainly: microbe, parasite or virus in culture. It is filed as cell-based. Particulars: 50 μM.
The next assay concerns Phytophthora infestans. It is filed as in vivo. The settings on record: in vivo.

Several values for one entry are separate records, joined by “and”; a condition that tells them apart may be missing. Equal entries are not always repeated.

With `CCC(=O)Nc1cc(-c2c(-c3ccc(F)cc3)nn3c2CCC3C)ccn1` (stereo not drawn) [Example 76], the efficacy in % with Alternaria solani is recorded as 100%; in the assay on Venturia inaequalis it was 100%; in the assay with Fusarium graminearum [1] it was 90%; in the assay with Puccinia triticina, 88%; with Uromyces appendiculatus it was 95%; in the assay with Botrytis cinerea it was 100%. Besides, the efficacy in % is 100% in assay [2], 89% with Leptosphaeria nodorum, 100% with Septoria tritici and 100% in the assay on Sphaerotheca fuliginea.

Regarding `COCC(=O)Nc1cc(-c2c(-c3ccccc3)nn3c2CCCC3)ccn1` [Example 23], the efficacy in % in the assay on Pyrenophora teres came out at 95%; in the assay on Alternaria solani, 95%; with Venturia inaequalis it was 98%; with Fusarium graminearum [1] it was 88%; with Puccinia triticina, 75%; with Uromyces appendiculatus it was 95%. The efficacy in % is 100% with Botrytis cinerea; 86% in assay [2]; 90% with Leptosphaeria nodorum; 86% with Septoria tritici; 89% in the assay on Sphaerotheca fuliginea; 80% in the assay with Phytophthora infestans. Besides, in the assay with DON/AcDON production, the “% inhibition of DON/AcDON at 50 μM” value turned out to be 100%. In addition, the “% inhibition of the fungal growth of Fusarium graminearum at 50 μM” value (“% inhibition of the fungal growth … at 50 μM” below) with Fusarium graminearum [3] amounted to 97%.

For `O=C(Nc1cc(-c2c(-c3ccc(F)cc3)nn3c2CCCC3)ccn1)c1ccccc1` [Example 32], the efficacy in % is 78% in the assay on Pyrenophora teres; 78% with Alternaria solani; 90% in the assay on Venturia inaequalis; 86% with Fusarium graminearum [1]; 89% in the assay on Puccinia triticina; 96% in the assay on Uromyces appendiculatus. Moreover, the efficacy in % with Botrytis cinerea came to 98%; in [2], 86%; in the assay with Leptosphaeria nodorum, 90%; with Septoria tritici it was 100%; in the assay on Phytophthora infestans, 70%. Moreover, the “% inhibition of DON/AcDON at 50 μM” value in the assay on DON/AcDON production came to 99%. The “% inhibition of the fungal growth … at 50 μM” value in the assay on Fusarium graminearum [3] is 94%.

Take `CCC(=O)Nc1cc(-c2c(-c3ccccc3)nn3c2CCCC3)ccn1` [Example 8]: the efficacy in % is reported as 100% in the assay with Pyrenophora teres; 100% in the assay with Alternaria solani; 96% in the assay on Venturia inaequalis; 88% in the assay with Fusarium graminearum [1]; 100% in the assay on Puccinia triticina; 100% in the assay with Uromyces appendiculatus. The efficacy in % with Botrytis cinerea was 99%; in assay [2], 100%; in the assay on Leptosphaeria nodorum, 95%; in the assay on Septoria tritici, 100%; in the assay with Sphaerotheca fuliginea, 99%; in the assay on Phytophthora infestans it was 95%. Also, in the assay with DON/AcDON production, the “% inhibition of DON/AcDON at 50 μM” value came out at 99%. Moreover, the “% inhibition of the fungal growth … at 50 μM” value in the assay with Fusarium graminearum [3] is on record as 100%.

For the molecule `C[C@H](O)C(=O)Nc1cc(-c2c(-c3ccc(F)cc3)nn3c2CCCC3)ccn1` [Example 24], the efficacy in % is on record as 95% with Pyrenophora teres; 95% with Alternaria solani; 83% in the assay with Venturia inaequalis; 100% in the assay on Fusarium graminearum [1]; 100% in the assay on Puccinia triticina; 91% in the assay on Uromyces appendiculatus. The efficacy in % with Botrytis cinerea is 76%; in assay [2], 100%; with Leptosphaeria nodorum, 90%; with Septoria tritici, 100%; in the assay with Sphaerotheca fuliginea, 94%; with Phytophthora infestans, 90%. In addition, the “% inhibition of DON/AcDON at 50 μM” value with DON/AcDON production was 99%. Moreover, in the assay on Fusarium graminearum [3], the “% inhibition of the fungal growth … at 50 μM” value turned out to be 74%.

Consider `CC1CCc2c(-c3ccncc3F)c(-c3ccc(F)cc3)nn21` (stereo not drawn) [Example 117], for which the efficacy in % in the assay with Pyrenophora teres was 100%; with Alternaria solani it was 94%; in the assay on Venturia inaequalis, 100%; with Fusarium graminearum [1], 100%; in the assay with Puccinia triticina it was 100%; with Uromyces appendiculatus, 90%. The efficacy in % in the assay on Botrytis cinerea came to 100%; in assay [2], 100%; with Leptosphaeria nodorum, 86%; in the assay with Septoria tritici, 100%; in the assay with Sphaerotheca fuliginea, 95%.

As to `CCC(=O)Nc1cc(-c2c(-c3ccc(F)cc3)nn3c2CCC3)ccn1` [Example 40], the efficacy in % with Pyrenophora teres is 95%; with Alternaria solani, 100%; in the assay with Venturia inaequalis it was 94%; in the assay with Fusarium graminearum [1], 100%; in the assay with Puccinia triticina it was 100%; with Uromyces appendiculatus, 81% and 75%. Further, the efficacy in % is listed as 100% in the assay on Botrytis cinerea; 100% in assay [2]; 95% in the assay with Leptosphaeria nodorum; 90% in the assay with Septoria tritici; 94% in the assay with Sphaerotheca fuliginea; 70% in the assay with Phytophthora infestans.

For `COCC(=O)Nc1cc(-c2c(-c3ccc(F)cc3)nn3c2CCCC3)ccn1` [Example 22], the efficacy in % is on record as 95% in the assay on Pyrenophora teres; 95% in the assay with Alternaria solani; 76% in the assay on Venturia inaequalis; 100% in the assay with Fusarium graminearum [1]; 75% in the assay with Puccinia triticina; 94% in the assay on Uromyces appendiculatus. Also, the efficacy in % in the assay with Botrytis cinerea was found to be 89%; in assay [2], 86%; in the assay on Leptosphaeria nodorum, 80%; in the assay on Septoria tritici, 86%; in the assay on Sphaerotheca fuliginea, 90%; with Phytophthora infestans, 90%. Moreover, the “% inhibition of DON/AcDON at 50 μM” value in the assay on DON/AcDON production is 100%. In the assay on Fusarium graminearum [3], the “% inhibition of the fungal growth … at 50 μM” value came to 97%.

Consider `CC(C)C(=O)Nc1cc(-c2c(-c3ccc(F)cc3)nn3c2CCC3C)ccn1` (stereo not drawn) [Example 77], for which the efficacy in % is on record as 89% with Alternaria solani; 100% in the assay on Venturia inaequalis; 90% in the assay with Fusarium graminearum [1]; 88% in the assay with Puccinia triticina; 98% with Uromyces appendiculatus; 100% in the assay on Botrytis cinerea. Moreover, the efficacy in % is on record as 100% in assay [2], 94% in the assay on Leptosphaeria nodorum and 100% in the assay with Septoria tritici.
